Experimental data as given in ChEMBL document CHEMBL3885881, “DrugMatrix”.

Species: Rattus norvegicus
Assay: DrugMatrix - Regimen: Daily Repeat
Type: toxicity, organism-based, Sprague-Dawley
Parameters: regimen Daily Repeat, gender Male, age 6-8 weeks
Conditions: in vivo, sc, route subcutaneous, […]; for ABSOLUTE BASOPHIL / ABSOLUTE EOSINOPHIL / ABSOLUTE LYMPHOCYTE / ABSOLUTE MONOCYTE / ABSOLUTE SEGMENTED NEUTROPHIL / BASOPHIL / EOSINOPHIL / ERYTHROCYTE COUNT / HEMATOCRIT / HEMOGLOBIN / LEUKOCYTE COUNT / LYMPHOCYTE / MEAN CORPUSCULAR HEMOGLOBIN / MEAN CORPUSCULAR HEMOGLOBIN CONCENTRATION / MEAN CORPUSCULAR VOLUME / MONOCYTE / NEUTROPHIL / NUCLEATED RED BLOOD CELLS / PLATELET COUNT: tissue Blood; for ALANINE AMINOTRANSFERASE / ALBUMIN / ALKALINE PHOSPHATASE / ASPARTATE AMINOTRANSFERASE / BLOOD UREA NITROGEN / CARBON DIOXIDE / CHLORIDE / CHOLESTEROL / CREATINE PHOSPHOKINASE / CREATININE / GLUCOSE / LACTATE DEHYDROGENASE / LIPASE / PHOSPHORUS / POTASSIUM / SODIUM / TOTAL BILIRUBIN / TOTAL PROTEIN / URIC ACID: tissue Plasma
[1] = 56 mg/kg, 120 h, dose level High, time 5 day
[2] = 72 h, dose 3.3 mg/Kg, dose level Low, time 3 day
[3] = 120 h, dose 3.3 mg/Kg, dose level Low, time 5 day

Compound: C[C@]12CCC(=O)C=C1CC[C@@H]1[C@@H]2[C@@H](O)C[C@@]2(C)[C@H]1CC[C@]2(O)C(=O)CO [HYDROCORTISONE]
- ABSOLUTE BASOPHIL [1]: 0 CELLS/uL
- ABSOLUTE EOSINOPHIL [1]: 0 CELLS/uL
- ABSOLUTE LYMPHOCYTE [1]: 1058 CELLS/uL
- ABSOLUTE MONOCYTE [1]: 166.67 CELLS/uL
- ABSOLUTE SEGMENTED NEUTROPHIL [1]: 5575.33 CELLS/uL
- BASOPHIL [1]: 0%
- EOSINOPHIL [1]: 0%
- ERYTHROCYTE COUNT [1]: 6.58 x10E6/uL
- HEMATOCRIT [1]: 40.47%
- HEMOGLOBIN [1]: 15.5 G/DL
- LEUKOCYTE COUNT [1]: 6.8 x10E3/uL
- LYMPHOCYTE [1]: 17%
- MEAN CORPUSCULAR HEMOGLOBIN [1]: 23.6 pg
- MEAN CORPUSCULAR HEMOGLOBIN CONCENTRATION [1]: 38.3 G/DL
- MEAN CORPUSCULAR VOLUME [1]: 61.63 fL
- MONOCYTE [1]: 2.33%
- NEUTROPHIL [1]: 80.67%
- NUCLEATED RED BLOOD CELLS [1]: 0 /100WBC
- PLATELET COUNT [1]: 1367.33 x10E3/uL
- ALANINE AMINOTRANSFERASE [1]: 309 u/L
- ALBUMIN [1]: 4.87 G/DL
- ALKALINE PHOSPHATASE [1]: 497.33 u/L
- ASPARTATE AMINOTRANSFERASE [1]: 475.33 u/L
- BLOOD UREA NITROGEN [1]: 23 mg/dL
- CARBON DIOXIDE [1]: 31.33 mmol/L
- CHLORIDE [1]: 95 MEQ/L
- CHOLESTEROL [1]: 140 mg/dL
- CREATINE PHOSPHOKINASE [1]: 224.67 u/L
- CREATININE [1]: 0.49 mg/dL
- GLUCOSE [1]: 479 mg/dL
- LACTATE DEHYDROGENASE [1]: 701 u/L
- LIPASE [1]: 15 u/L
- PHOSPHORUS [1]: 12.63 mg/dL
- POTASSIUM [1]: 5.83 MEQ/L
- SODIUM [1]: 145.23 MEQ/L
- TOTAL BILIRUBIN [1]: 0.17 mg/dL
- TOTAL PROTEIN [1]: 6.73 G/DL
- URIC ACID [1]: 1.57 mg/dL
- ABSOLUTE BASOPHIL [2]: 0 CELLS/uL
- ABSOLUTE EOSINOPHIL [2]: 0 CELLS/uL
- ABSOLUTE LYMPHOCYTE [2]: 9134.67 CELLS/uL
- ABSOLUTE MONOCYTE [2]: 0 CELLS/uL
- ABSOLUTE SEGMENTED NEUTROPHIL [2]: 898.67 CELLS/uL
- BASOPHIL [2]: 0%
- EOSINOPHIL [2]: 0%
- ERYTHROCYTE COUNT [2]: 5.23 x10E6/uL
- HEMATOCRIT [2]: 33.47%
- HEMOGLOBIN [2]: 13.37 G/DL
- LEUKOCYTE COUNT [2]: 10.03 x10E3/uL
- LYMPHOCYTE [2]: 90.67%
- MEAN CORPUSCULAR HEMOGLOBIN [2]: 25.6 pg
- MEAN CORPUSCULAR HEMOGLOBIN CONCENTRATION [2]: 39.93 G/DL
- MEAN CORPUSCULAR VOLUME [2]: 64.07 fL
- MONOCYTE [2]: 0%
- NEUTROPHIL [2]: 9.33%
- NUCLEATED RED BLOOD CELLS [2]: 0 /100WBC
- PLATELET COUNT [2]: 1185.33 x10E3/uL
- ALANINE AMINOTRANSFERASE [2]: 42.33 u/L
- ALBUMIN [2]: 4.73 G/DL
- ALKALINE PHOSPHATASE [2]: 429 u/L
- ASPARTATE AMINOTRANSFERASE [2]: 94.33 u/L
- BLOOD UREA NITROGEN [2]: 15.67 mg/dL
- CARBON DIOXIDE [2]: 32.67 mmol/L
- CHLORIDE [2]: 101.33 MEQ/L
- CHOLESTEROL [2]: 78.67 mg/dL
- CREATINE PHOSPHOKINASE [2]: 185 u/L
- CREATININE [2]: 0.23 mg/dL
- GLUCOSE [2]: 137.67 mg/dL
- LACTATE DEHYDROGENASE [2]: 131.33 u/L
- LIPASE [2]: 9.67 u/L
- PHOSPHORUS [2]: 12.3 mg/dL
- POTASSIUM [2]: 6.34 MEQ/L
- SODIUM [2]: 150.8 MEQ/L
- TOTAL BILIRUBIN [2]: 0.3 mg/dL
- TOTAL PROTEIN [2]: 6.73 G/DL
- URIC ACID [2]: 0.83 mg/dL
- ABSOLUTE BASOPHIL [3]: 0 CELLS/uL
- ABSOLUTE EOSINOPHIL [3]: 115 CELLS/uL
- ABSOLUTE LYMPHOCYTE [3]: 10473.33 CELLS/uL
- ABSOLUTE MONOCYTE [3]: 38.33 CELLS/uL
- ABSOLUTE SEGMENTED NEUTROPHIL [3]: 1440 CELLS/uL
- BASOPHIL [3]: 0%
- EOSINOPHIL [3]: 1%
- ERYTHROCYTE COUNT [3]: 5.54 x10E6/uL
- HEMATOCRIT [3]: 36.47%
- HEMOGLOBIN [3]: 14.6 G/DL
- LEUKOCYTE COUNT [3]: 12.07 x10E3/uL
- LYMPHOCYTE [3]: 87%
- MEAN CORPUSCULAR HEMOGLOBIN [3]: 26.37 pg
- MEAN CORPUSCULAR HEMOGLOBIN CONCENTRATION [3]: 40.07 G/DL
- MEAN CORPUSCULAR VOLUME [3]: 65.8 fL
- MONOCYTE [3]: 0.33%
- NEUTROPHIL [3]: 11.67%
- NUCLEATED RED BLOOD CELLS [3]: 0 /100WBC
- PLATELET COUNT [3]: 1230 x10E3/uL
- ALANINE AMINOTRANSFERASE [3]: 51.67 u/L
- ALBUMIN [3]: 4.73 G/DL
- ALKALINE PHOSPHATASE [3]: 334.67 u/L
- ASPARTATE AMINOTRANSFERASE [3]: 73 u/L
- BLOOD UREA NITROGEN [3]: 15.33 mg/dL
- CARBON DIOXIDE [3]: 31.33 mmol/L
- CHLORIDE [3]: 104 MEQ/L
- CHOLESTEROL [3]: 66 mg/dL
- CREATINE PHOSPHOKINASE [3]: 123.33 u/L
- CREATININE [3]: 0.18 mg/dL
- GLUCOSE [3]: 160 mg/dL
- LACTATE DEHYDROGENASE [3]: 97.33 u/L
- LIPASE [3]: 9.33 u/L
- PHOSPHORUS [3]: 14.23 mg/dL
- POTASSIUM [3]: 6.63 MEQ/L
- SODIUM [3]: 149.93 MEQ/L
- TOTAL BILIRUBIN [3]: 0.2 mg/dL
- TOTAL PROTEIN [3]: 6.63 G/DL
- URIC ACID [3]: 1.7 mg/dL
